Laboratory results from patent US6346549B1, “Treatment of pharmacology of drug misuse and other addictive disorders” (Knoll Pharmaceutical Company, priority 1999, dated 2002).

What was measured:
[1] = molecular target: T1, [3H]Noradenaline reuptake in rat brain tissue (Rattus norvegicus); assay: in vitro [3H]noradrenaline reuptake inhibition in rat brain tissue; assay type: biochemical; details: monoamine reuptake inhibition, means of ≧3 separate determinations
T1 construct: in rat brain tissue; from tissue; host or cells: rat brain tissue
T1 sequence (Q63380 1-617): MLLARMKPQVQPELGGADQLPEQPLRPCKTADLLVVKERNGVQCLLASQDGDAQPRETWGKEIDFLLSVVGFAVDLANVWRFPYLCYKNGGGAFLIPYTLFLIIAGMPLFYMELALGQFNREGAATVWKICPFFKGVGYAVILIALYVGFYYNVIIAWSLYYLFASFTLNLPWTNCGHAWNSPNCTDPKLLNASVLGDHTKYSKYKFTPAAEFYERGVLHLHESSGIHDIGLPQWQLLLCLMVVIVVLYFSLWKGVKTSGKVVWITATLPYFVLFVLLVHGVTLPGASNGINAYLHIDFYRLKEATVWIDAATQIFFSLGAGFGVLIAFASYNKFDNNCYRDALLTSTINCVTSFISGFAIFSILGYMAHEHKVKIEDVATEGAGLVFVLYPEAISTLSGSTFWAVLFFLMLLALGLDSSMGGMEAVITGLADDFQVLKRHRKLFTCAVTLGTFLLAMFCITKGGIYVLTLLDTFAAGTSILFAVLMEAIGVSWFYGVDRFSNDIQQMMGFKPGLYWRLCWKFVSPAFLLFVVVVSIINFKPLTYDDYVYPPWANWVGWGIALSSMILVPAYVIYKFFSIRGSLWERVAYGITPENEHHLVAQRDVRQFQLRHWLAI

[2] = molecular target: [3H]Dopamine reuptake in rat brain tissue (Rattus norvegicus, UniProt P23977); assay: biochemical
Sequence of [3H]Dopamine reuptake in rat brain tissue (P23977 whole entry): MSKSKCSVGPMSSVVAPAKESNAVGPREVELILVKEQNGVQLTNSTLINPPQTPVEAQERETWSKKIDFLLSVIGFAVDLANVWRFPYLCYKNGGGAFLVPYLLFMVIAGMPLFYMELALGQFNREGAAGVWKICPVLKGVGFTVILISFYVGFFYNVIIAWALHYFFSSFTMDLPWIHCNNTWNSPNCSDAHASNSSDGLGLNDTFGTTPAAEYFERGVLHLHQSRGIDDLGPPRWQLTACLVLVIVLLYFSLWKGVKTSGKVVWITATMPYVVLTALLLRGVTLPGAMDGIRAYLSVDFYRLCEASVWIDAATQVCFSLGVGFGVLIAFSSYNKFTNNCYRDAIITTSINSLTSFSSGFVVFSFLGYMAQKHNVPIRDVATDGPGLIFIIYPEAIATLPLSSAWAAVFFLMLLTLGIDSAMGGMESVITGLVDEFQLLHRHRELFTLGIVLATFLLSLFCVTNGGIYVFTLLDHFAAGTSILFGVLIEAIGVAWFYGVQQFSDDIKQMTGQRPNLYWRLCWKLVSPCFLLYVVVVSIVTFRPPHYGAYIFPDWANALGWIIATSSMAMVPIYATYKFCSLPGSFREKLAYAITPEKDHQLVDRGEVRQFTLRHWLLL

`CC(NC(C)(C)C)C(=O)c1cccc(Cl)c1` (centres unmarked) [Bupropion] gave a Ki [1] of 2590 nM and a Ki [2] of 409 nM.
